Data reported in patent publication US20120052017A1, “METHOD FOR PRODUCING CONTRAST AGENT FOR OPTICAL IMAGING” (CANON KABUSHIKI KAISHA, priority 2010, published 2012).

Legend:
[1] = Solubility of ICG in dichloromethane when phospholipid was added; type: physicochemical; conditions: phospholipid not added; inferred by comparison with ICG-methanol solution
Method: 2 molar equivalents of a phospholipid was added to 5.5 mg of ICG. As the phospholipid, DSPC or DOPE was used. Each of these ICG-phospholipid mixtures was dissolved in 2 mL of dichloromethane. Controls were brepared by dissolving in 10 G in methanol or dichloromethane. All these 10 G solutions were filtered with a filter having a pore size of 0.2 μm and then diluted 500-fold with dichloromethane.

[2] = Composition ratio of DSPC and ICG: ICG dissolved in chloroform; type: physicochemical; conditions: 47.2 mM DSPC in the ICG chloroform solution
Method: 0.5, 1 or 2 Molar Equivalents of DSPC was Added to 55 mg of ICG.
3 mL of chloroform was added to each of these ICG-DSPC mixtures. The mixtures were heated at 40° C. for two minutes, and ultrasonic irradiation was performed for one minute. […] These suspensions were filtered with a filter having a pore size of 0.45 μm to remove insoluble matters. Each of the filtrates was diluted 3000-fold with methanol.

CC1(C)C(/C=C/C=C/C=C/C=C2/N(CCCCS(=O)(=O)[O-])c3ccc4ccccc4c3C2(C)C)=[N+](CCCCS(=O)(=O)[O-])c2ccc3ccccc3c21.[Na+] [ICG, indocyanine green]
ICG dissolved in dichloromethane [1]: approximately 0.6 mM
concentration of ICG dissolved [2]: 15700 µM
